Experiments:
[1] = test system: HSV-1 McKrae Strain; assay: Direct virucidal efficacy against HSV-1 on HFF monolayers; format: cell-based; conditions: for effective virucidal concentration IC50 / effective virucidal concentration IC90: HSV-1; for efficacy in virucidal assay (comment): Experiment 6 comment, reduction in toxicity resulted in it
[2] = test system: HSV-1 McKrae Strain; assay: Intracellular antiviral activity against HSV-1 in HFF monolayers; format: cell-based; conditions: for antiviral efficacy (HSV-1 titer): Experiment 7 (Table 18), 24 h PI; for effective virucidal concentration IC50: Experiment 7 (Table 19), HSV-1
Protocol: HSV-1 McKrae Strain was diluted to a final concentration of 10^5 PFU/ml in minimal essential medium (MEM). Hereinafter, this dilution is referred to as the HSV-1 Suspension for convenience.
With sufficient stirring, all the compounds completely dissolved.
HFF cell monolayers were inoculated with the HSV-Suspension prepared as above by absorption for thirty minutes at 37° C. After absorption of the virus, the inoculum was aspirated from the cell monolayers and the HSV-1 infected monolayers were rehydrated with medium containing the appropriate concentration of the solution of the compound by adding 500 microliters of each compound concentration to triplicate HSV-1 infected monolayers. All monolayers were incubated at 37° C. The developing HSV-1 cytopathology was monitored daily for two days by inverted light microscopy and titers were calculated by multiple […] analysis. For the intracellular anti-viral activity, "cell monolayer controls" were obtained using sham inoculated non-treated HFF cell monolayers along with the drug treated monolayers. "Positive controls" were obtained by using HSV-1 inoculated non-CTC compound treated HFF monolayers.

[3] = Protocol: A stock solution of each compound to be tested at a concentration of 5 mg/ml was prepared. The stock solution was serially diluted in Hank's Balanced Salt Solution (HBSS) to obtain final drug concentrations of 5, 2, 1, 0.5, 0.1, 0.01, 0.001 and 0.0001 mg/ml. […] In such cases, the highest dissolved concentration that could be obtained was utilized.
Concentrations of compounds 93, 96, and 23 were prepared as follows: A stock solution of each compound at a concentration of 5 mg/ml was made. This stock solution was serially diluted in Hanks Balanced Salt Solution to obtain final drug concentrations of: 5, 2, 1, 0.5, 0.1, 0.01, 0.001, and 0.0001 mg/ml. Five hundred μl of each drug concentration were added to triplicate infected monolayers.

[4] = test system: RE strain HSV-1; assay: HSV-1 recovery from tear film, cornea and trigeminal ganglia of treated rabbits; format: in vivo, NZW rabbit
Source text: The specified number of NZW rabbits (1.5-2.0 kg) were used. Animals were received at least two days prior to inoculation to allow them to accommodate to the conditions in the vivarium facility. This conditioning of the animals prior to inoculation minimizes animal variability. After the accommodation, the animals received a slit-lamp examination to exclude any animals with pre-existing anterior segment ocular defects. Animals were bi-laterally inoculated by intrastromal injection of 10^5 PFU RE strain HSV-1. The animals were then replaced individually into cages.
[…] This was carried out by obtaining tear film by swabbing the lower and upper conjunctival sacs and retaining the swab in the nasal fornix for 10 seconds. The swabs were eluted individually in HBSS. 50 μl aliquots of the virus-HBSS eluate were absorbed under confluent HFF cell monolayers for 5 minutes. The monolayers were hydrated with MEM, incubated at 37° C. and observed daily for 1 to 2 weeks to detect developing cytopathology consistent with HSV infection (HSV CPE).
On day 10 PI, the animals were sacrificed, the corneal epithelium was scraped from the eyes and epithelial and corneal stromal cultures were preformed on HFF cell monolayers. The separation of epithelial virus from deeper stromal virus infection allows for analysis of HSV in these distinct corneal layers. Corneal epithelial and stromal co-cultures were evaluated daily by inverted light microscopy.
At sacrifice, trigeminal ganglia were removed, washed in HBSS, minced and floated over duplicate HFF cell monolayers. The cell co-cultures were monitored by inverted light microscopy for 2 weeks. Negative cultures were blind passaged twice at 7 day intervals. Detection of HSV CPE in the whole-cell co-cultures was scored either positive or negative. HSV recovery from inventive compound-treated, TFT-treated and placebo-treated trigeminal ganglia was compared and differences in recovery rates analyzed.
On day 7 PI, the animals were sacrificed, the corneal epithelium was scraped from the eyes and epithelial and corneal stromal cultures were performed on HFF cell monolayers. The separation of epithelial virus from deeper stromal virus infection allows for analysis of HSV in these distinct corneal layers. Corneal epithelial and stromal co-cultures were evaluated daily by inverted light microscopy.

[5] = Experiment 4 (Table 9), 24 h PI, Run 1, 5 mg/ml
[6] = Experiment 4 (Table 9), 24 h PI, Run 2, 0.01 mg/ml
[7] = Experiment 4 (Table 9), 24 h PI, Run 2, 0.1 mg/ml
[8] = Experiment 4 (Table 9), 24 h PI, Run 2, 1 mg/ml
[9] = Experiment 4 (Table 9), 24 h PI, Run 2, 5 mg/ml
[10] = Experiment 6 (Table 16), 24 h PI, 0.5 mg/ml
[11] = Experiment 6 (Table 16), 24 h PI, 1 mg/ml

## CC(=NCCN=C(C)C(Cl)=C(C)[O-])C(Cl)=C(C)[O-].[Br-].[Co+3].c1c[nH]cn1.c1c[nH]cn1 [Compound 93]
[1]; Experiment 4 (Table 9), 24 h PI, Run 1, 0.001 mg/ml
  virucidal efficacy (HSV-1 titer): 10^5 PFU/ml
[1]; Experiment 4 (Table 9), 24 h PI, Run 1, 0.5 mg/ml
  virucidal efficacy (HSV-1 titer): 10^2 PFU/ml
[1]; Experiment 4 (Table 9), 24 h PI, Run 1, 1 mg/ml
  virucidal efficacy (HSV-1 titer): 0 PFU/ml
[1]; [5]
  virucidal efficacy (HSV-1 titer): 0 PFU/ml
[1]; [6]
  virucidal efficacy (HSV-1 titer): 10^2 PFU/ml
[1]; [7]
  virucidal efficacy (HSV-1 titer): 0 PFU/ml
[1]; Experiment 4 (Table 9), 24 h PI, Run 2, 0.5 mg/ml
  virucidal efficacy (HSV-1 titer): 0 PFU/ml
[1]; [8]
  virucidal efficacy (HSV-1 titer): 0 PFU/ml
[1]; [9]
  virucidal efficacy (HSV-1 titer): 0 PFU/ml
[1]; Experiment 4 (Table 11)
  effective virucidal concentration IC50: 0.5 mg/mL
  effective virucidal concentration IC90: > 1.0 mg/mL
[1]; Experiment 6 (Table 16), 24 h PI, 0.1 mg/ml
  virucidal efficacy (HSV-1 titer): 10^2 PFU/ml
[1]; [10]
  virucidal efficacy (HSV-1 titer): 0 PFU/ml
[1]; [11]
  virucidal efficacy (HSV-1 titer): 0 PFU/ml
[1]; Experiment 6 (Table 17)
  effective virucidal concentration IC50: 0.1 mg/mL
[1]
  efficacy in virucidal assay (comment): reduction in efficacy
[2]; 0.001 mg/ml
  antiviral efficacy (HSV-1 titer): 10^5 PFU/ml
[2]; 0.5 mg/ml
  antiviral efficacy (HSV-1 titer): 10^2 PFU/ml
[2]; 1 mg/ml
  antiviral efficacy (HSV-1 titer): 0 PFU/ml
[2]
  effective virucidal concentration IC50: 0.5 mg/mL
[3]
  solubility at 5 and 2 mg/ml: not to be soluble

## CC([O-])=CC(C)=NCCN=C(C)C=C(C)[O-].Cc1ncc[nH]1.Cc1ncc[nH]1.[Br-].[Co+3] [Compound 96]
[1]; Experiment 2 (Table 5), 24 h PI, 0.001 mg/ml
  virucidal efficacy (HSV-1 titer): 10^4 PFU/ml
[1]; Experiment 2 (Table 5), 24 h PI, 1 mg/ml
  virucidal efficacy (HSV-1 titer): 0 PFU/ml
[1]; Experiment 2 (Table 5), 48 h PI, 0.01 mg/ml
  virucidal efficacy (HSV-1 titer): 10^6 PFU/ml
[1]; Experiment 2 (Table 5), 48 h PI, 1 mg/ml
  virucidal efficacy (HSV-1 titer): 0 PFU/ml
[1]; Experiment 2 (Table 6)
  effective virucidal concentration IC50: 0.1 mg/mL
[1]; Experiment 3 (Table 8), 24 h PI, 0.001 mg/ml
  virucidal efficacy (HSV-1 titer): 10^5 PFU/ml
[1]; Experiment 3 (Table 8), 24 h PI, 1 mg/ml
  virucidal efficacy (HSV-1 titer): 0 PFU/ml
[1]; Experiment 3 (Table 8), 48 h PI, 1 mg/ml
  virucidal efficacy (HSV-1 titer): 10^5 PFU/ml
[1]; [5]
  virucidal efficacy (HSV-1 titer): 0 PFU/ml
[1]; [6]
  virucidal efficacy (HSV-1 titer): 10^4 PFU/ml
[1]; [7]
  virucidal efficacy (HSV-1 titer): 10^2 PFU/ml
[1]; [8]
  virucidal efficacy (HSV-1 titer): 0 PFU/ml
[1]; [9]
  virucidal efficacy (HSV-1 titer): 0 PFU/ml
[1]; Experiment 4 (Table 11)
  effective virucidal concentration IC90: > 1 mg/mL
[1]; Experiment 5 (Table 12), 24 h PI, Run 1, 0.0001 mg/ml
  virucidal efficacy (HSV-1 titer): 10^5 PFU/ml
[1]; Experiment 5 (Table 12), 24 h PI, Run 1, 0.1 mg/ml
  virucidal efficacy (HSV-1 titer): 10^2 PFU/ml
[1]; Experiment 5 (Table 12), 24 h PI, Run 1, 1 mg/ml
  virucidal efficacy (HSV-1 titer): 0 PFU/ml
[1]; Experiment 5 (Table 12), 24 h PI, Run 1, 5 mg/ml
  virucidal efficacy (HSV-1 titer): 0 PFU/ml
[1]; Experiment 5 (Table 12), 24 h PI, Run 2, 0.0001 mg/ml
  virucidal efficacy (HSV-1 titer): 10^3 PFU/ml
[1]; Experiment 5 (Table 12), 24 h PI, Run 2, 0.001 mg/ml
  virucidal efficacy (HSV-1 titer): 10^3 PFU/ml
[1]; Experiment 5 (Table 12), 24 h PI, Run 2, 0.01 mg/ml
  virucidal efficacy (HSV-1 titer): 10^3 PFU/ml
[1]; Experiment 5 (Table 12), 24 h PI, Run 2, 0.1 mg/ml
  virucidal efficacy (HSV-1 titer): 0 PFU/ml
[1]; Experiment 5 (Table 12), 24 h PI, Run 2, 1 mg/ml
  virucidal efficacy (HSV-1 titer): 0 PFU/ml
[1]; Experiment 5 (Table 12), 24 h PI, Run 2, 5 mg/ml
  virucidal efficacy (HSV-1 titer): 0 PFU/ml
[1]; Experiment 5 (Table 14)
  effective virucidal concentration IC50: 0.1 to 1.0 mg/mL
  effective virucidal concentration IC90: > 1 mg/mL
[1]; [10]
  virucidal efficacy (HSV-1 titer): 0 PFU/ml
[1]; [11]
  virucidal efficacy (HSV-1 titer): 0 PFU/ml
[1]; Experiment 6 (Table 16), 24 h PI, 2 mg/ml
  virucidal efficacy (HSV-1 titer): 0 PFU/ml
[1]; Experiment 6 (Table 16), 24 h PI, 5 mg/ml
  virucidal efficacy (HSV-1 titer): 0 PFU/ml
[1]; Experiment 6 (Table 17)
  effective virucidal concentration IC50: 0.1 mg/mL
[1]
  efficacy in virucidal assay (comment): reduction in efficacy
[2]; 0.1 mg/ml
  antiviral efficacy (HSV-1 titer): 10^2 PFU/ml
[2]; 2 mg/ml
  antiviral efficacy (HSV-1 titer): 0 PFU/ml
[2]; 5 mg/ml
  antiviral efficacy (HSV-1 titer): 0 PFU/ml
[2]
  effective virucidal concentration IC50: 0.5 to 1.0 mg/mL
[4]; Example 3 (Table 22)
  HSV-1 recovery, corneal epithelium (C.E.): 50%
  HSV-1 recovery, corneal stroma (C.S.): 50%
  HSV-1 recovery, trigeminal ganglia (T.G.): 50%
[4]; Example 3 (Table 22), day 3 PI
  HSV-1 recovery, tear film (positive samples of total): 100%
[4]; Example 3 (Table 22), day 5 PI
  HSV-1 recovery, tear film (positive samples of total): 100%
[4]; Example 3 (Table 22), day 7 PI
  HSV-1 recovery, tear film (positive samples of total): 80%
[4]; Example 3 (Table 22), day 9 PI
  HSV-1 recovery, tear film (positive samples of total): 0%
[4]; Example 4
  recovery of HSV-1 in tear film: reduced the recovery of HSV-1 in tear film
[4]; Example 5 (Table 23)
  HSV-1 recovery, corneal stroma: 70%
[4]; Example 5 (Table 23), column 1
  HSV-1 recovery (positive cultures per total): 0%
[4]; Example 5 (Table 23), column 3
  HSV-1 recovery (positive cultures per total): 100%
[4]; Example 5 (Table 23), column 5
  HSV-1 recovery (positive cultures per total): 90%
[4]; Example 5 (Table 23), column 7
  HSV-1 recovery (positive cultures per total): 70%
[3]
  solubility of stock solution at 1 mg/ml: moderately insoluble

From patent publication US5756491A, “Antiviral cobalt-organic compounds” (priority 1991, dated 1998)
